Measured values from patent US20110151469A1, “INTERFERON EPSILON (IFNE1) AS A MARKER FOR TARGETED CANCER THERAPY” (PIRAMAL LIFE SCIENCES LIMITED, priority 2008, published 2011).
Entries after “also recorded” stand apart in the source; their conditions may differ.

Key:
[1] = test system: IFNE1 mRNA in HCT116 cells; experiment: QRT-PCR of IFNE1 transcript level in HCT116 cells treated with CDK and non-CDK inhibitors; assay type: cell-based, human; settings: 6 hours, P276-00 250 nM, Flavopiridol 200 nM, Fascaplysin 500 nM, Roscovitine 20 μM, Olomoucine 180 μM, DRB 50 μM, 5-Fluorouracil 800 nM, Camptothecin 30 nM, Etoposide 3 μM, Vinblastin 1.5 μM, Quercitin 750 nM, Paclitaxel 600 nM, Doxorubicin 100 nM
Description: HCT116 cells were treated with various CDK inhibitors [P276-00 (250 nM), Flavopiridol (200 nM), Fascaplysin (500 nM), Roscovitine (20 μM), Olomoucine (180 μM), 5,6-dichloro-1-beta-D-ribofuranosylbenzimidazole (DRB, 50 μM)] and non-CDK inhibitors [5-Fluorouracil (800 nM), Camptothecin (30 nM), Etoposide (3 μM), Vinblastin (1.5 μM), Quercitin (750 nM), Paclitaxel (600 nM), Doxorubicin (100 nM)] for 6 hours. The level of IFNE1 mRNA was estimated using Real Time RT-PCR. Using Actin gene for normalization, relative IFNE1 expression level was plotted as log fold change.
To study if IFNE1 expression is a result of CDK inhibition, HCT116 cells were treated with a variety of CDK and non-CDK inhibitors and IFNE1 transcript level were measured using quantitative QRT-PCR. HCT116 cells were chosen for this assay because IFNE1 level seems to be most regulated in this cell line. The cells were treated with a variety of CDK inhibitors [P276-00 (250 nM), Flavopiridol (200 nM), Fascaplysin (500 nM), Roscovitine (20 μM), Olomoucine (180 μM), 5,6-dichloro-1-beta-D-ribofuranosylbenzimidazole (DRB) (50 μM)] and non-CDK inhibitors [5-Fluorouracil (800 nM), Camptothecin (30 nM), Etoposide (3 μM), Vinblastin (1.5 μM), Quercitin (750 nM), Paclitaxel (600 nM), Doxorubicin (100 nM)] for 6 hours and the IFNE1 transcript level were estimated. All inhibitors were purchased from Sigma and used at IC50 values described in literature.

[2] = test system: IFNE1 mRNA in HCT116 cells; experiment: QRT-PCR of IFNE1 level in HCT116 cells treated with P276-00 or Flavopiridol; assay type: cell-based, human; settings: for IFNE1 level relative to control untreated cells: at most time points (6, 12, 24 hours)
Description: (§1) FIGS. 3A, 3B and 3C show expression of IFNE1 in different cancer cell lines treated with P276-00 and Flavopiridol. The different cell lines were treated with the agent for the indicated times and the level of IFNE1 mRNA were estimated using Real Time RT-PCR. Using the Actin gene for normalization, IFNE1 expression level was plotted as log fold change relative to the signal from the control untreated cells.
(§2) The expression of IFNE1 in response to P276-00 or Flavopiridol was also studied in different cancer cell lines such as HCT116, HL-60 (leukemia) and Calu-1. HCT116, Calu-1, H460 and HL-60 cells were obtained from ATCC and were maintained in culture medium with 10% fetal bovine serum. P276-00 and Flavopiridol were synthesized in-house and 10 mM stocks in DMSO were used for the assays. HCT116 (FIG. 3A) cells in culture were treated with P276-00 and Flavopiridol at 200 nM and 250 nM respectively for 6 hours, 12 hours and 24 hours. HL-60 (FIG. 3B) cells were treated with 300 nM of P276-00 and […] of Flavopiridol for 3 hours, 6 hours, 12 hours and 24 hours and Calu-1 (FIG. 3C) cells were treated with 1.2 μM of P276-00 and 450 nM of Flavopiridol for 4 hours, 8 hours, 12 hours, 24 hours and 48 hours. RNA was prepared from the samples and QRT-PCR was performed to estimate level of IFNE1.

[3] = test system: IFNE1 gene in HCT116 xenografts; experiment: Oligonucleotide microarray expression profiling of IFNE1 in HCT116 xenografts treated with P276-00 or Flavopiridol; assay type: in vivo, SCID mice
Description: (§3) Colon carcinoma (HCT-116) cells were injected into severe combined immunodeficient (SCID) mice intraperitoneally. Xenografts were allowed to grow, typically for 7 days until the tumors reached a size of 5×5 mm before therapeutic agent administration. A total of 56 animals were used for the study. Animals that were treated with two consecutive day administrations of the agent/vehicle were considered as the acute treated group. The acute treated group of animals consisted of 8 sham treated, 10 Flavopiridol (2.5 mg/kg) treated, and P276-00 (35 mg/kg) treated mice. A similar group of animals was treated with either vehicle or agent for 6-7 days consecutively and was considered as the chronic treated group, as discussed below. The differences in the concentrations used reflect the differences in the IC50 values of the two therapeutic agents.
(§4) At the end of the acute/chronic treatments, the xenografts were excised from the animals and RNA was prepared using Trizol reagent (Sigma, USA) as per the manufacturer's protocol. Briefly, xenograft tissues were homogenized under liquid nitrogen and resuspended in Trizol ([…] tissue) followed by chloroform extraction. The RNA was precipitated in isopropanol and the pellet was washed using 70% ethanol. RNA samples thus obtained were resuspended in RNase-DNase free water. Quality and quantity of RNA was measured by spectrometry using ND-1000 spectrometer (Nanodrop, Wilmington, Del., USA).
To account for variability in gene expression in the xenografts before agent treatments, RNA samples from the respective control groups were pooled proportionally. Each of the P276/FP acute treated xenograft was, therefore, compared with pooled acute control RNA samples and the same method was adopted for the chronically treated samples. For microarray hybridization, a total of 20 μg of RNA was used for cDNA synthesis, which was indirectly labeled with Cy3 (pooled control) or Cy5 (individual treated xenograft) fluorescent dyes as described (Chinnaiyan AM et. al., Am J. Pathol. 2001 October; 159(4): 1199-209). A 23,290 oligonucleotide array (Illumina, USA) was spotted using the OmniGrid™ Genemachines. The slides were processed by standard procedures and hybridization was performed in the two-channel mode. Post hybridization, the slides were washed and scanned using GeneTAC UC-4 and images obtained were analyzed using the GenePix Pro 5.1. The median of ratios of intensities (Cy5/Cy3) obtained from the two channels was subjected to Cluster analysis and viewed using the Treeview program. Median of ratios above 2 is considered as significant upregulation of the specific gene in the drug treated xenograft and a value below 0.5 is considered as downregulation of the specific gene in the drug treated xenograft.
A total of 16 hybridizations representing 10 acute treatments (FIG. 1A) and 6 chronic treatments (FIG. 1B) were analyzed. Individual hybridizations were numbered according to acute (A) or chronic (C) treatment followed by the animal number and the respective agent used. For example, A20 (P276) identifies acute treated xenograft with P276-00 in the animal numbered 20.
The values represent the log of median of ratio for IFNE1 gene across different xenografts treated with either P276-00 or Flavopiridol. As mentioned before, a ratio value above 1 indicates a two-fold increase in the gene levels. The Cluster analysis identifies upregulation of IFNE1 consistently across both acute (Table 1A) and chronic (Table 1B) treatments of HCT116 xenografts.

[4] = test system: IFNE1 gene expression in HCT116 xenografts; experiment: Real Time Quantitative Reverse Transcriptase PCR of IFNE1 in HCT116 xenografts; assay type: in vivo, SCID mice; settings: normalized to actin
Description: as §3, §4
IFNE1 expression in tumor tissues, after exposure to P276-00 or Flavopiridol, was further validated by RTQ-PCR. The primer sequences used for PCR analysis are as follows:
The actin (ACTB) gene is used as control for relative quantification, and the following primer sequences were used for its PCR analysis:
An aliquot of the RNA samples used for the microarray study was also used for Quantitative Real Time Reverse TRasncriptase PCR (QRT-PCR) analysis. […]

[5] = test system: IFNE1 mRNA in Calu-1 cells; experiment: QRT-PCR of IFNE1 level in Calu-1 cells treated with P276-00 or Flavopiridol; assay type: cell-based, human; settings: at most time points (4, 8, 12, 24, 48 hours)
Description: as §1, §2

[6] = test system: IFNE1 mRNA in HL-60 cells; experiment: QRT-PCR of IFNE1 level in HL-60 cells treated with P276-00 or Flavopiridol; assay type: cell-based, human; settings: at most time points (3, 6, 12, 24 hours)
Description: as §1, §2

## O=c1[nH]cc(F)c(=O)[nH]1 [5-Fluorouracil]
[1]
  change of IFNE1 mRNA level: do not cause a change

## CC[C@@]1(O)C(=O)OCc2c1cc1n(c2=O)Cc2cc3ccccc3nc2-1 [Camptothecin]
[1]
  change of IFNE1 mRNA level: do not cause a change

## CN1CC[C@@H](c2c(O)cc(O)c3c(=O)cc(-c4ccccc4Cl)oc23)[C@@H]1CO.Cl [Compound P276-00, (+)-trans-2-(2-Chloro-phenyl)-5,7-dihydroxy-8-(2-hydroxymethyl-1-methyl-pyrrolidin-3-yl)-chromen-4-one hydrochloride]
[2]
  IFNE1 level relative to control untreated cells: significant increase
[3]; acute treatment (two consecutive days), xenograft A20, P276-00 35 mg/kg, log base 2 of Cy5/Cy3 vs pooled control
  log of median of ratio for IFNE1 gene: 2.26
[3]; acute treatment, xenograft A2, P276-00 35 mg/kg, log base 2 vs pooled control
  log of median of ratio for IFNE1 gene: 1.107
[3]; acute treatment, xenograft A5, P276-00 35 mg/kg, log base 2 vs pooled control
  log of median of ratio for IFNE1 gene: 1.966
[3]; acute treatment, xenograft A11, P276-00 35 mg/kg, log base 2 vs pooled control
  log of median of ratio for IFNE1 gene: 2.053
[3]; acute treatment, xenograft A23, P276-00 35 mg/kg, log base 2 vs pooled control
  log of median of ratio for IFNE1 gene: 3.252
[3]; chronic treatment (6-7 days consecutively), xenograft C17, P276-00, log base 2 vs pooled control
  log of median of ratio for IFNE1 gene: 0.7715
[3]; chronic treatment, xenograft C11, P276-00, log base 2 vs pooled control
  log of median of ratio for IFNE1 gene: 1.318
[3]; chronic treatment, xenograft C23, P276-00, log base 2 vs pooled control
  log of median of ratio for IFNE1 gene: 1.326
[1]
  change of IFNE1 mRNA level: upregulation
[4]; acute treatment
  xenografts with upregulated IFNE1 level by QRT-PCR: 3 of the 6
[4]; chronic treatment
  xenografts with upregulated IFNE1 level by QRT-PCR: most of the xenografts tested
[5]
  IFNE1 level relative to control untreated cells: significant increase
[6]
  IFNE1 level relative to control untreated cells: significant increase

## OC[C@H]1O[C@@H](n2cnc3cc(Cl)c(Cl)cc32)[C@H](O)[C@@H]1O [DRB, 5,6-dichloro-1-beta-D-ribofuranosylbenzimidazole]
[1]
  change of IFNE1 mRNA level: upregulation

## COc1cccc2c1C(=O)c1c(O)c3c(c(O)c1C2=O)C[C@@](O)(C(=O)CO)C[C@@H]3O[C@H]1C[C@H](N)[C@H](O)[C@H](C)O1 [Doxorubicin]
[1]
  change of IFNE1 mRNA level: do not cause a change

## COc1cc([C@@H]2c3cc4c(cc3[C@@H](O[C@@H]3O[C@@H]5CO[C@@H](C)O[C@H]5[C@H](O)[C@H]3O)[C@H]3COC(=O)[C@H]23)OCO4)cc(OC)c1O [Etoposide]
[1]
  change of IFNE1 mRNA level: do not cause a change

## O=C1c2ccccc2-[n+]2ccc3c([nH]c4ccccc43)c21 [Fascaplysin]
[1]
  change of IFNE1 mRNA level: upregulation

## CN1CC[C@H](c2c(O)cc(O)c3c(=O)cc(-c4ccccc4Cl)oc23)[C@H](O)C1 [Flavopiridol]
[2]; 12 hours, normalized to Actin
  IFNE1 up-regulation, log fold change relative to control untreated cells: up to 7 log fold changes
[2]
  IFNE1 level relative to control untreated cells: significant increase
[3]; acute treatment, xenograft A3, Flavopiridol 2.5 mg/kg, log base 2 vs pooled control
  log of median of ratio for IFNE1 gene: 2.017
[3]; acute treatment, xenograft A6, Flavopiridol 2.5 mg/kg, log base 2 vs pooled control
  log of median of ratio for IFNE1 gene: 1.121
[3]; acute treatment, xenograft A9, Flavopiridol 2.5 mg/kg, log base 2 vs pooled control
  log of median of ratio for IFNE1 gene: 1.568
[3]; acute treatment, xenograft A15, Flavopiridol 2.5 mg/kg, log base 2 vs pooled control
  log of median of ratio for IFNE1 gene: 1.228
[3]; acute treatment, xenograft A22, Flavopiridol 2.5 mg/kg, log base 2 vs pooled control
  log of median of ratio for IFNE1 gene: 1.17
[3]; chronic treatment, xenograft C6, Flavopiridol, log base 2 vs pooled control
  log of median of ratio for IFNE1 gene: 2.731
[3]; chronic treatment, xenograft C9, Flavopiridol, log base 2 vs pooled control
  log of median of ratio for IFNE1 gene: 1.723
[3]; chronic treatment, xenograft C15, Flavopiridol, log base 2 vs pooled control
  log of median of ratio for IFNE1 gene: 1.595
[1]
  change of IFNE1 mRNA level: upregulation
[4]; acute or chronic not distinguished
  xenografts with IFNE1 up-regulation by QRT-PCR: most of the xenografts tested
[5]
  IFNE1 level relative to control untreated cells: significant increase
[6]
  IFNE1 level relative to control untreated cells: significant increase

## CC(=O)O[C@H]1C(=O)[C@@]2(C)[C@H]([C@H](OC(=O)c3ccccc3)[C@]3(O)C[C@H](OC(=O)[C@H](O)[C@@H](NC(=O)c4ccccc4)c4ccccc4)C(C)=C1C3(C)C)[C@]1(OC(C)=O)CO[C@@H]1C[C@@H]2O [Paclitaxel]
[1]
  change of IFNE1 mRNA level: do not cause a change

## O=c1c(O)c(-c2ccc(O)c(O)c2)oc2cc(O)cc(O)c12 [Quercitin]
[1]
  change of IFNE1 mRNA level: do not cause a change

## CC[C@H](CO)Nc1nc(NCc2ccccc2)c2ncn(C(C)C)c2n1 [Roscovitine]
[1]
  change of IFNE1 mRNA level: upregulation; also recorded: potentiated IFNE1 level maximally

## CC[C@]1(O)C[C@@H]2CN(CCc3c([nH]c4ccccc34)[C@@](C(=O)OC)(c3cc4c(cc3OC)N(C)[C@H]3[C@@](O)(C(=O)OC)[C@H](OC(C)=O)[C@]5(CC)C=CCN6CC[C@]43[C@@H]65)C2)C1 [Vinblastin]
[1]
  change of IFNE1 mRNA level: do not cause a change
